Molecules are shown by their SMILES.

One test relates to Aβ42 production. The test is described as follows: Quantification of Aβ peptide in culture of neurons from rat fetus brain (Aβ ELISA). It counts as cell-based. To be noted: Rattus norvegicus, Neuron, 72 h, rat primary neuronal culture (embryonic day 18 Wistar rat cerebral cortex); cultured three days after addition of compound; Aβx-42 ELISA of the medium; read-out: Aβ42 production reducing effect IC50. How it is done:
Quantification of Aβ Peptide in Culture of Neurons from Rat Fetus Brain
(1) Rat Primary Neuronal Culture
Primary neuronal cultures were prepared from the cerebral cortex of embryonic day 18 Wistar rats (Charles River Japan, Yokohama, Japan). Specifically, the embryos were aseptically removed from pregnant rats under ether anesthesia. The brain was isolated from the embryo and immersed in an ice-cold L-15 medium (Invitrogen Corp. Cat #11415-064, Carlsbad, Calif., USA, or SIGMA L1518, for example). The cerebral cortex was collected from the isolated brain under a stereoscopic microscope. The cerebral cortex fragments collected were enzymatically treated in an enzyme solution containing 0.25% trypsin (Invitrogen Corp. Cat #15050-065, Carlsbad, Calif., USA) and 0.01% DNase (Sigma D5025, St. Louis, Mo., USA) at 37° C. for 30 minutes to disperse the cells. Here, the enzymatic reaction was stopped by adding inactivated horse serum to the solution. The enzymatically treated solution was centrifuged at 1,500 rpm for five minutes to remove the supernatant. 5 to 10 ml of a medium was added to the resulting cell mass. Neurobasal medium (Invitrogen Corp. Cat #21103-049, Carlsbad, Calif., USA) supplemented with 2% B27 supplement (Invitrogen Corp. Cat #17504-044, Carlsbad, Calif., USA), 25 μM 2-mercaptoethanol (2-ME, WAKO Cat #139-06861, Osaka, Japan), 0.5 mM L-glutamine (Invitrogen Corp. Cat #25030-081, Carlsbad, Calif., USA), and Antibiotics-Antimycotics (Invitrogen Corp. Cat #15240-062, Carlsbad, Calif., USA) was used as the medium (Neurobasal/B27/2-ME). However, the above Neurobasal medium not supplemented with 2-ME (Neurobasal/B27) was used for the assay. The cells were redispersed by mild pipetting of the cell mass to which the medium was added. The cell dispersion was filtered through a 40-μm nylon mesh (Cell Strainer, Cat #35-2340, Becton Dickinson Labware, Franklin Lakes, N.J., USA) to remove the remaining cell mass, and thus a neuronal cell suspension was obtained. The neuronal cell suspension was diluted with the medium and then plated in a volume of 100 μl/well at an initial cell density of 5×10^5 cells/cm^2 in a 96-well polystyrene culture plate pre-coated with poly-L or D-lysine (Falcon Cat #35-3075, Becton Dickinson Labware, Franklin Lakes, N.J., USA coated with poly-L-lysine using the method shown below, or BIOCOAT™ cell environments Poly-D-lysine cell ware 96-well plate, Cat #35-6461, Becton Dickinson Labware, Franklin Lakes, N.J., USA). Poly-L-lysine coating was carried out as follows. 100 μg/ml of a poly-L-lysine (SIGMA P2636, St. Louis, Mo., USA) solution was aseptically prepared with a 0.15 M borate buffer (pH 8.5). 100 μl/well of the solution was added to the 96-well polystyrene culture plate and incubated at room temperature for one or more hours or at 4° C. overnight or longer. The coated 96-well polystyrene culture plate was washed with sterile water four or more times, and then dried or rinsed with, for example, sterile PBS or medium, and used for cell plating. The plated cells were cultured in the culture plate at 37° C. in 5% CO2-95% air for one day. Then, the total amount of the medium was replaced with a fresh Neurobasal™/B27/2-ME medium, and then the cells were cultured for further three days.
The drug was added to the culture plate on Day 4 of culture as follows. The total amount of the medium was removed from the wells, and 180 μl/well of Neurobasal medium not containing 2-ME and containing 2% B-27 (Neurobasal/B27) was added thereto. A solution of the test compound in dimethyl sulfoxide (hereinafter abbreviated as DMSO) was diluted with Neurobasal/B27 at 10-fold of the final concentration. 20 μl/well of the dilution was added to and sufficiently mixed with the medium. The final DMSO concentration was 1% or less. Only DMSO was added to the control group.
The cells were cultured for three days after addition of the compound, and the total amount of the medium was collected. […]
One may read the IC50 as the concentration that gives 50% inhibition. In the case of `COc1nc(/C=C/c2nc3n(n2)CCCC3c2cc(F)cc(F)c2)ccc1-n1cnc(C)c1` (single isomer, unassigned; (-)) [Example 337, (−)-8-(3,5-difluorophenyl)-2-{(E)-2-[6-methoxy-5-(4-methyl-1H-imidazol-1-yl)pyridin-2-yl]vinyl}-5,6,7,8-tetrahydro[1,2,4]triazolo[1,5-a]pyridine], the IC50 stood at 13 nM.
Regarding `COc1nc(/C=C/c2nc3n(n2)CCC[C@H]3c2cccc3ccccc23)ccc1-n1cnc(C)c1` (single isomer, unassigned) [Example 199, (+)-2-{(E)-2-[6-methoxy-5-(4-methyl-1H-imidazol-1-yl)pyridin-2-yl]vinyl}-8-(naphthalen-1-yl)-5,6,7,8-tetrahydro-[1,2,4]triazolo[1,5-a]pyridine], the IC50 is 23 nM.
Consider `COCc1ccccc1C1CCCn2nc(/C=C/c3ccc(-n4cnc(C)c4)c(OC)c3)nc21` (single isomer, unassigned; (-)) [Example 22, (−)-2-{(E)-2-[3-methoxy-4-(4-methyl-1H-imidazol-1-yl)phenyl]vinyl}-8-(2-methoxymethylphenyl)-5,6,7,8-tetrahydro-[1,2,4]triazolo[1,5-a]pyridine], for which the IC50 is 25 nM.
For `COc1nc(/C=C/c2nc3n(n2)CCC[C@H]3c2cc(F)c(F)c(F)c2)ccc1-n1cnc(C)c1` (single isomer, unassigned) [Example 169, (−)-2-{(E)-2-[6-methoxy-5-(4-methyl-1H-imidazol-1-yl)pyridin-2-yl]vinyl}-8-(3,4,5-trifluorophenyl)-5,6,7,8-tetrahydro-[1,2,4]triazolo[1,5-a]pyridine], the IC50 was found to be 22 nM.
For the compound `COc1nc(/C=C/c2nc3n(n2)CCC[C@H]3c2ccccc2)ccc1-n1cnc(C)c1` (single isomer, unassigned) [Example 207, (−)-2-{(E)-2-[6-methoxy-5-(4-methyl-1H-imidazol-1-yl)pyridin-2-yl]vinyl}-8-phenyl-5,6,7,8-tetrahydro-[1,2,4]triazolo[1,5-a]pyridine], the IC50 stood at 28 nM.
On the same count and under the same terms, next, `COc1nc(/C=C/c2nc3n(n2)CC[C@H](C)N3c2ccc(F)cc2)ccc1-n1cnc(C)c1` [Example 236, (S)-4-(4-fluorophenyl)-2-{(E)-2-[6-methoxy-5-(4-methyl-1H-imidazol-1-yl)pyridin-2-yl]vinyl}-5-methyl-4,5,6,7-tetrahydro-[1,2,4]triazolo[1,5-a]pyrimidine]: 39 nM; `COc1nc(/C=C/c2nc3n(n2)CCOC3c2ccc(Cl)cc2)ccc1-n1cnc(C)c1` (single isomer, unassigned) [Example 262, (−)-8-(4-chlorophenyl)-2-{(E)-2-[6-methoxy-5-(4-methyl-1H-imidazol-1-yl)pyridin-2-yl]vinyl}-5,6-dihydro-8H-[1,2,4]triazolo[5,1-c][1,4]oxazine]: 74 nM.
On to `COc1cc(/C=C/c2nc3n(n2)CCC[C@@]3(C#N)c2cc(F)c(F)c(F)c2)cnc1-n1cnc(C)c1` (single isomer, unassigned) [Example 229, (−)-2-{(E)-2-[5-methoxy-6-(4-methyl-1H-imidazol-1-yl)pyridin-3-yl]vinyl}-8-(3,4,5-trifluorophenyl)-5,6,7,8-tetrahydro-[1,2,4]triazolo[1,5-a]pyridine-8-carbonitrile], for which the IC50 stood at 169 nM.
`COc1cc(/C=C/c2nc3n(n2)CCCCN3c2ccc(F)cc2)ccc1-n1cnc(C)c1` [Example 165, 8-(4-fluorophenyl)-2-{(E)-2-[3-methoxy-4-(4-methyl-1H-imidazol-1-yl)phenyl]vinyl}-5,6,7,8-tetrahydro-4H-1,3,3a,8-tetraazaazulene]: the IC50 was 115 nM.
Turning to `COc1nc(/C=C/c2nc3n(n2)CCCC3c2cccc(F)c2C)ccc1-n1cnc(C)c1` (single isomer, unassigned; (-)) [Example 333, (−)-8-(3-fluoro-2-methylphenyl)-2-{(E)-2-[6-methoxy-5-(4-methyl-1H-imidazol-1-yl)pyridin-2-yl]vinyl}-5,6,7,8-tetrahydro-[1,2,4]triazolo[1,5-a]pyridine], the IC50 is 10 nM.
Take `COc1cc(/C=C/c2nc3n(n2)CCCC3(O)c2cc(F)cc(F)c2)ccc1-n1cnc(C)c1` (single isomer, unassigned; (+)) [Example 80, (+)-8-(3,5-difluorophenyl)-2-{(E)-2-[3-methoxy-4-(4-methyl-1H-imidazol-1-yl)phenyl]vinyl}-5,6,7,8-tetrahydro[1,2,4]triazolo[1,5-a]pyridin-8-ol]: the IC50 is 29 nM.
Consider `COc1nc(/C=C/c2nc3n(n2)CCC[C@@H]3c2ccc(F)c(Cl)c2)ccc1-n1cnc(C)c1` (single isomer, unassigned) [Example 175, (−)-8-(3-chloro-4-fluorophenyl)-2-{(E)-2-[6-methoxy-5-(4-methyl-1H-imidazol-1-yl)pyridin-2-yl]vinyl}-5,6,7,8-tetrahydro-[1,2,4]triazolo[1,5-a]pyridine], for which the IC50 was determined as 38 nM.
With `COc1cc(/C=C/c2nc3n(n2)CC[C@H](O)[C@H]3c2cc(F)c(F)c(F)c2)ccc1-n1cnc(C)c1` [Example 103, (7S,8S)-2-{(E)-2-[3-methoxy-4-(4-methyl-1H-imidazol-1-yl)phenyl]vinyl}-8-(3,4,5-trifluorophenyl)-5,6,7,8-tetrahydro-[1,2,4]triazolo[1,5-a]pyridin-7-ol], the IC50 was 32 nM.
Turning to `COc1nc(/C=C/c2nc3n(n2)CCC[C@@H]3c2cc(F)c(F)cc2F)ccc1-n1cnc(C)c1` (single isomer, unassigned) [Example 179, (−)-8-(2,4,5-trifluorophenyl)-2-{(E)-2-[6-methoxy-5-(4-methyl-1H-imidazol-1-yl)pyridin-2-yl]vinyl}-5,6,7,8-tetrahydro[1,2,4]triazolo[1,5-a]pyridine], the IC50 was 22 nM.
On the same count and under the same terms, with `COc1nc(/C=C/c2nc3n(n2)CCOC3c2ccccc2C(F)(F)F)ccc1-n1cnc(C)c1` (stereo not drawn) [Example 368, 2-{(E)-2-[6-methoxy-5-(4-methyl-1H-imidazol-1-yl)pyridin-2-yl]vinyl}-8-(2-trifluoromethylphenyl)-5,6-dihydro-8H-[1,2,4]triazolo[5,1-c][1,4]oxazine] the figure was 25 nM.
Regarding `COc1nc(/C=C/c2nc3n(n2)CCC3c2ccccc2)ccc1-n1cnc(C)c1` (stereo not drawn) [Example 376, 2-{(E)-2-[6-methoxy-5-(4-methyl-1H-imidazol-1-yl)pyridin-2-yl]vinyl}-7-phenyl-6,7-dihydro-5H-pyrrolo[1,2-b][1,2,4]triazole], the IC50 is 28 nM.

Still in this test, the particulars now being: rat primary neuronal culture (embryonic day 18 Wistar rat cerebral cortex); cultured three days after addition of compound; Aβx-42 ELISA of the medium; read-out: Aβ42 production reducing effect IC50.
Regarding `COc1nc(/C=C/c2nc3n(n2)C(C)CCC3c2ccccc2C(F)(F)F)ccc1-n1cnc(C)c1` (stereo not drawn) [Example 362, 2-{(E)-2-[6-methoxy-5-(4-methyl-1H-imidazol-1-yl)pyridin-2-yl]vinyl}-5-methyl-8-(2-trifluoromethylphenyl)-5,6,7,8-tetrahydro-[1,2,4]triazolo[1,5-a]pyridine], the IC50 was found to be 9 nM.
Turning to `COc1nc(/C=C/c2nc3n(n2)CCCC3c2cc(F)cc(F)c2)ccc1-n1cnc(C)c1` (stereo not drawn) [Example 365, 8-(3,5-difluorophenyl)-2-{(E)-2-[6-methoxy-5-(4-methyl-1H-imidazol-1-yl)pyridin-2-yl]vinyl}-5,6,7,8-tetrahydro-[1,2,4]triazolo[1,5-a]pyridine], the IC50 was determined as 21 nM.

For the origin of these results see patent US7935815B2, “Imidazoyl pyridine compounds and salts thereof” (Eisai R&D Management Co., Ltd., priority 2007, dated 2011).
